Data set [1] concerns MC903-induced persistent itch behavior of mice. Put plainly: MC903 model of persistent itch (skin inflammation). It counts as in vivo. Particulars: i.p. at day 8, vs vehicle. On the procedure:
Similarly, the effect of Compound 6 was also examined in the MC903 model of skin inflammation, which has some characteristics of allergic contact dermatitis and atopic dermatitis^32.
The fur on the dorsolateral aspect of the neck was shaved under brief isoflurane anesthesia. Five days thereafter, 20 μL MC903 (0.2 mM; Calcipotriol, Tocris) solved in absolute ethanol was applied to the skin at the back of the neck in brief anesthesia for 7 consecutive days. On day 8, mice were habituated for 30 min in separate plexiglass cylinders (30 cm diameter). Compounds or vehicle (10% 2-hydroxypropyl-β-cyclodextrine in 0.9% saline) were i.p. administered, and 15 min thereafter spontaneous scratching was recorded over 30 min by videotaping (FIG. 10D). […] These findings are important, because they indicate that Slack activators can ameliorate pruritus that has already established.

Data set [2] addresses T1, short form of dopamine receptor D2 (D2S) (Homo sapiens, UniProt P14416).
T1 construct: Eurofins SafetyScreen44
In words: SafetyScreen44 binding. To be noted: 10 μM; substantial = higher than 50%. Here is the method:
(§1) Compound enzyme inhibition effect was calculated as a % inhibition of control enzyme activity. […] Measurements were performed in duplicate.

The subject of data set [3] is heart rate and breath rate of mice. In words: Pulse oximetry on conscious, freely moving mice. In kind it is in vivo. Particulars: 10 mg/kg i.p., observation period of 30 min. On the procedure: Finally, potential side effects of Compound 6 were assessed by measuring cardiovascular functions by pulse oximetry.
Data set [4] addresses T2, human Slack (Homo sapiens, UniProt Q5JUK3).
T2 construct: host or cells: HEK293
T2 sequence (Q5JUK3 1-1230): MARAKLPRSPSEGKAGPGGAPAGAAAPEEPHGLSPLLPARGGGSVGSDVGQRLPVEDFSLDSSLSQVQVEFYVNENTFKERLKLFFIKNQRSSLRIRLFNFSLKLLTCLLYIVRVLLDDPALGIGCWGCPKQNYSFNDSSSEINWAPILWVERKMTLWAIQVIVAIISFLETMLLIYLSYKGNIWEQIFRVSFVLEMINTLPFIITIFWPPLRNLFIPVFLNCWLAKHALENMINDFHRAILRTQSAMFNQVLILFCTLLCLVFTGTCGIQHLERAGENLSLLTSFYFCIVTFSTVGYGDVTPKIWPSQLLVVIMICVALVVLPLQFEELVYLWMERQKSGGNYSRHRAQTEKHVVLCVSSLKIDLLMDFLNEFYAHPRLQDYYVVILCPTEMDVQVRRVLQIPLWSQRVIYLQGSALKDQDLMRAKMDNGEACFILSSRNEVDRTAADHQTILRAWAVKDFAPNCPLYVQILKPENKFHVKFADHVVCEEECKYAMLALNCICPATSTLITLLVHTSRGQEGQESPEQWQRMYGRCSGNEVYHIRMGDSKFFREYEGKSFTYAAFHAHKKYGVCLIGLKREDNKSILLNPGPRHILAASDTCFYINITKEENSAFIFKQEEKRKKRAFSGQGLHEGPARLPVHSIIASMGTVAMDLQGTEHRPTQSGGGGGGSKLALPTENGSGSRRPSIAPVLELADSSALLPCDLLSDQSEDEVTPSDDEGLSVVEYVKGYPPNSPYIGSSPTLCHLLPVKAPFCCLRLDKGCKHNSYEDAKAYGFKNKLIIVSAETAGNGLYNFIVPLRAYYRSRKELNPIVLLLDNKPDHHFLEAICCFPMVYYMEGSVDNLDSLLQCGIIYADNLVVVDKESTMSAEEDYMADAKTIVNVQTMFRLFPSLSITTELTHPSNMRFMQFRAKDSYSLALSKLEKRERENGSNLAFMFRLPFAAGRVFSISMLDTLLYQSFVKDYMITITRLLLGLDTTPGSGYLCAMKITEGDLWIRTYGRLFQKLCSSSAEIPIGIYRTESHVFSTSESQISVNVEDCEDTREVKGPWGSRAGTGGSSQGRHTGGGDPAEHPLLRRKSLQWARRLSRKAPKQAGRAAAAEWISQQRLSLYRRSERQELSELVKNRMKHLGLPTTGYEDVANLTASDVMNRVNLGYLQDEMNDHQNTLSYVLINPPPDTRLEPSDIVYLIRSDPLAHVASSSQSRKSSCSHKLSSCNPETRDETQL
In words: Whole-cell patch-clamp recordings in HEK-Slack cells. It counts as cell-based. Here is the method:
Generally, in these experiments, HEK-Slack cells were plated onto poly-D-lysine-coated (100 μg/mL, Sigma Aldrich) coverslips 1 day before experiments and cultured in DMEM containing 10% FBS and 1% penicillin/streptomycin in 5% CO2 at 37° C. Whole-cell voltage clamp recordings were acquired using an EPC 9 amplifier combined with Patchmaster software (HEKA Electronics, Lambrecht/Pfalz, Germany). Currents were sampled at 20 kHz and filtered at 5 KHz. Data analysis was performed using the Fitmaster software (HEKA Electronics). Membrane potential was held at −70 mV and outward K^+ current (IK) was evoked by depolarizing steps (500 ms duration) ranging from −120 to +120 mV in increments of 20 mV. The pipette solution contained 140 mM KCl, 2 mM MgCl2, 5 mM EGTA, 10 mM HEPES, and was adjusted to pH 7.4 with KOH. The extracellular solution contained 140 mM NaCl, 5 mM KCl, 2 mM CaCl2), 2 mM MgCl2, 10 mM HEPES, and was adjusted to pH 7.4 with NaOH.
At a holding potential of −70 mV a series of 500 ms-long test pulses ranging from −120 to +120 mV in intervals of 20 mV were applied.
Fold increase values in patch-clamp experiments were determined by calculating […].
(In general: In patch-clamp work, channel activity is measured electrically.)

In data set [5] the target is T3, cannabinoid receptor 1 (CB1) (Homo sapiens, UniProt P21554).
T3 construct: Eurofins SafetyScreen44
T3 sequence (P21554 whole entry): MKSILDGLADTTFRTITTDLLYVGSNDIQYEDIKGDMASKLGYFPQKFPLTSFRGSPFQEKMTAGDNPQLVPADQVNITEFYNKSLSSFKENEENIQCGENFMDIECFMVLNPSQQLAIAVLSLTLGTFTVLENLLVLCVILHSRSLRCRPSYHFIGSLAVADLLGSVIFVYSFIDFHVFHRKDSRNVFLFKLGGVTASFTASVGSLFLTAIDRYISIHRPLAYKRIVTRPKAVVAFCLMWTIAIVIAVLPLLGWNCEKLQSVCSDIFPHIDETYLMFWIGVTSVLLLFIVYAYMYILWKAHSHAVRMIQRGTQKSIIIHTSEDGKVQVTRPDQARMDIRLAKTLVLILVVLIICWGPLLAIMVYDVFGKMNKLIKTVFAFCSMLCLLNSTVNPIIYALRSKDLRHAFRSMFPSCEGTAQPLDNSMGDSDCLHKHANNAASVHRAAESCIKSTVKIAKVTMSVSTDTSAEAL
Put plainly: SafetyScreen44 binding. Particulars: 10 μM; substantial = higher than 50%. On the procedure:
as §1

These results are taken from patent US20260258003A1, “SLACK-ACTIVATING COMPOUNDS AND THEIR MEDICAL USE” (Johann Wolfgang Goethe-Universität Frankfurt am Main, priority 2023, published 2026).

Structures are written as SMILES.

T1 sequence (P14416 1-414 isoform P14416-2): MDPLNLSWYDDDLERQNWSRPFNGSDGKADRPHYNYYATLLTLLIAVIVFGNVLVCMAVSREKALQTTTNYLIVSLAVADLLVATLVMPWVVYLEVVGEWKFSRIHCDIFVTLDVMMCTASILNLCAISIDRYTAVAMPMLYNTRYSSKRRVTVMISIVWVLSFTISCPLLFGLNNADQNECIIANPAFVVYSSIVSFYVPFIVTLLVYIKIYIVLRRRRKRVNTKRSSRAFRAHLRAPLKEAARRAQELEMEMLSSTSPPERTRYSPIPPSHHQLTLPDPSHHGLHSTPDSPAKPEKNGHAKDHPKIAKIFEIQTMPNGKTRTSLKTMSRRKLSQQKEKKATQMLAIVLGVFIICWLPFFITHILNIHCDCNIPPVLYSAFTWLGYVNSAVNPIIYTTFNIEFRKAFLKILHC

As for `O=C(O)COCCN1CCN(C2=Nc3ccccc3Oc3ccc(Cl)cc32)CC1` [Compound 6, 2-(2-(4-(2-Chlorodibenzo[b,f][1,4]oxazepin-11-yl)piperazin-1-yl)ethoxy) acetic acid], in data set [1], the “head shaking, MC903 model” value is on record as “significantly ameliorated” and the “scratching, MC903 model” value is “significantly ameliorated”. Moreover, the “binding inhibition, D2S” value in data set [2] is reported as “substantial binding”. In data set [3], the breath rate entry is reported as “did neither affect” and the heart rate result was “did neither affect”.

With `O=c1nc(CN2CCN(C3=Nc4ccccc4Oc4ccc(Cl)cc43)CC2)[nH][nH]1` [Compound 10, 5-((4-(2-Chlorodibenzo[b,f][1,4]oxazepin-11-yl)piperazin-1-yl)methyl)-1,2-dihydro-3H-1,2,4-triazol-3-one], the results for the “fold increase compared to baseline” value in data set [4] (25 μM) and in data set [4] (50 μM) were 7.74±1.525 fold and 12.54±1.395 fold, respectively. Besides, the “binding inhibition, CB1” value in data set [5] is on record as “substantial binding inhibition”.

Take `CN1CCCN(C2=Nc3ccccc3Oc3ccc(C(F)(F)F)cc32)CC1` [Compound 3, 11-(4-Methyl-1,4-diazepan-1-yl)-2-(trifluoromethyl)dibenzo[b,f][1,4]oxazepine]: in data set [4] (50 μM), the “IK amplitude in comparison to vehicle” value was “all except Compound 3”.
